# Measured values from the supplement of paper PMC4862054.
# Tested on: HDQ-P1
# Assay: normalised viability (% of control), CellTiter-Blue; higher = more viable cells (about 100 = DMSO control)
# Conditions: 3 nM; incubation time: 72 h
# Outline: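 Vehicle (100) and a positive kill control (0) anchored the normalisation of each plate, and Z'-factor was used for quality control. Breast cancer cell lines in 20 µl suspension were incubated 72 h over compound in 5 µl medium in 384-well plates, followed by CellTiter-Blue at 560/590 nm. The value is normalised viability at a single listed concentration of the series.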
row,SMILES,normalised viability [%]
1,Nc1nc(F)nc2c1ncn2[C@@H]1O[C@H](CO)[C@@H](O)[C@@H]1O [Fludarabine],107
2,O=C(O)C1(C(=O)O)CCC1.[NH2-].[NH2-].[Pt+2] [Carboplatin],108
3,N#Cc1ccc(C(c2ccc(C#N)cc2)n2cncn2)cc1 [Letrozole],90.8
4,C1CN1c1nc(N2CC2)nc(N2CC2)n1 [Triethylenemelamine],110
5,CCCS(=O)(=O)Nc1ccc(F)c(C(=O)c2c[nH]c3ncc(-c4ccc(Cl)cc4)cc23)c1F [Vemurafenib],92.9
6,O=C(O)C(=O)O.[NH-][C@@H]1CCCC[C@H]1[NH-].[Pt+2] [Oxaliplatin],110
7,Cc1ccc(-c2cc(C(F)(F)F)nn2-c2ccc(S(N)(=O)=O)cc2)cc1 [Celecoxib],104
8,NCCCNCCSP(=O)(O)O [Amifostine],101
9,COc1cc2c(Oc3ccc4[nH]c(C)cc4c3F)ncnc2cc1OCCCN1CCCC1 [Cediranib],90.6
10,C[C@H]1C[C@@H]2[C@H]([C@@H](O)C[C@@]3(C)[C@H]2CC[C@]3(O)C(=O)CO)[C@@]2(C)C=CC(=O)C=C12 [Methylprednisolone],108
11,CCc1cncnc1N1CCN(Cc2nc3ccc(C(F)(F)F)cc3[nH]2)CC1,116
12,C=CC(=O)N1CCC[C@@H](n2nc(-c3ccc(Oc4ccccc4)cc3)c3c(N)ncnc32)C1,106
13,Oc1ncc(N(CCCl)CCCl)c(O)n1 [Uracil mustard],124
14,Cc1cnc(NC(=O)Nc2cc(Br)c(C)cc2OC[C@@H]2CNCCO2)cn1,88.4
15,CC1=C(/C=C/C(C)=C/C=C/C(C)=C/C(=O)O)C(C)(C)CCC1 [Tretinoin],120

# Same assay, conditions: 10 nM; incubation time: 72 h
row,SMILES,normalised viability [%]
1,COc1cc2c(Oc3ccc4[nH]c(C)cc4c3F)ncnc2cc1OCCCN1CCCC1 [Cediranib],100
2,C=CC(=O)N1CCC[C@@H](n2nc(-c3ccc(Oc4ccccc4)cc3)c3c(N)ncnc32)C1,105
3,Cc1cnc(NC(=O)Nc2cc(Br)c(C)cc2OC[C@@H]2CNCCO2)cn1,68.7

# Same assay, conditions: 30 nM; incubation time: 72 h
row,SMILES,normalised viability [%]
1,Nc1nc(F)nc2c1ncn2[C@@H]1O[C@H](CO)[C@@H](O)[C@@H]1O [Fludarabine],91
2,O=C(O)C1(C(=O)O)CCC1.[NH2-].[NH2-].[Pt+2] [Carboplatin],107
3,N#Cc1ccc(C(c2ccc(C#N)cc2)n2cncn2)cc1 [Letrozole],79.5
4,C1CN1c1nc(N2CC2)nc(N2CC2)n1 [Triethylenemelamine],94.3
5,CCCS(=O)(=O)Nc1ccc(F)c(C(=O)c2c[nH]c3ncc(-c4ccc(Cl)cc4)cc23)c1F [Vemurafenib],105
6,O=C(O)C(=O)O.[NH-][C@@H]1CCCC[C@H]1[NH-].[Pt+2] [Oxaliplatin],103
7,Cc1ccc(-c2cc(C(F)(F)F)nn2-c2ccc(S(N)(=O)=O)cc2)cc1 [Celecoxib],93.5
8,NCCCNCCSP(=O)(O)O [Amifostine],95.5
9,C[C@H]1C[C@@H]2[C@H]([C@@H](O)C[C@@]3(C)[C@H]2CC[C@]3(O)C(=O)CO)[C@@]2(C)C=CC(=O)C=C12 [Methylprednisolone],103
10,CCc1cncnc1N1CCN(Cc2nc3ccc(C(F)(F)F)cc3[nH]2)CC1,108
11,Oc1ncc(N(CCCl)CCCl)c(O)n1 [Uracil mustard],111
12,CC1=C(/C=C/C(C)=C/C=C/C(C)=C/C(=O)O)C(C)(C)CCC1 [Tretinoin],122

# Same assay, conditions: 100 nM; incubation time: 72 h
row,SMILES,normalised viability [%]
1,Nc1nc(F)nc2c1ncn2[C@@H]1O[C@H](CO)[C@@H](O)[C@@H]1O [Fludarabine],96.4
2,O=C(O)C1(C(=O)O)CCC1.[NH2-].[NH2-].[Pt+2] [Carboplatin],103
3,N#Cc1ccc(C(c2ccc(C#N)cc2)n2cncn2)cc1 [Letrozole],84.5
4,C1CN1c1nc(N2CC2)nc(N2CC2)n1 [Triethylenemelamine],118
5,CCCS(=O)(=O)Nc1ccc(F)c(C(=O)c2c[nH]c3ncc(-c4ccc(Cl)cc4)cc23)c1F [Vemurafenib],106
6,O=C(O)C(=O)O.[NH-][C@@H]1CCCC[C@H]1[NH-].[Pt+2] [Oxaliplatin],107
7,Cc1ccc(-c2cc(C(F)(F)F)nn2-c2ccc(S(N)(=O)=O)cc2)cc1 [Celecoxib],85
8,NCCCNCCSP(=O)(O)O [Amifostine],84.8
9,C[C@H]1C[C@@H]2[C@H]([C@@H](O)C[C@@]3(C)[C@H]2CC[C@]3(O)C(=O)CO)[C@@]2(C)C=CC(=O)C=C12 [Methylprednisolone],122
10,CCc1cncnc1N1CCN(Cc2nc3ccc(C(F)(F)F)cc3[nH]2)CC1,108
11,Oc1ncc(N(CCCl)CCCl)c(O)n1 [Uracil mustard],107
12,CC1=C(/C=C/C(C)=C/C=C/C(C)=C/C(=O)O)C(C)(C)CCC1 [Tretinoin],107

# Tested on: MDA-MB-468
# Assay: not given
# Conditions: 72 h
# Outline: (§1)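 The reported EC50 was fitted from percent-inhibition dose-response curves and censored at the highest concentration. Breast cancer cell lines (20 µl suspension) were added to 384-well plates containing compound in 5 µl medium and incubated 72 h, and viability was read with 2.5 µl CellTiter-Blue over 2 h at 37 °C at 560/590 nm. Each plate was normalised to vehicle and a positive kill control and checked by Z'-factor, and rows with zero drug sensitivity score were dropped.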
row,"EC50, CellTiter-Blue viability [µM]",SMILES
1,3.25,O=C(O)C(=O)O.[NH-][C@@H]1CCCC[C@H]1[NH-].[Pt+2] [Oxaliplatin]
2,0.0711,C=CC(=O)N1CCC[C@@H](n2nc(-c3ccc(Oc4ccccc4)cc3)c3c(N)ncnc32)C1

# Tested on: HCC1599
# Assay: not given
# Conditions: 72 h
# Outline: as §1
row,"EC50, CellTiter-Blue viability [µM]",SMILES
1,0.311,N#Cc1ccc(C(c2ccc(C#N)cc2)n2cncn2)cc1 [Letrozole]
2,0.82,O=C(O)C(=O)O.[NH-][C@@H]1CCCC[C@H]1[NH-].[Pt+2] [Oxaliplatin]
3,0.221,Cc1cnc(NC(=O)Nc2cc(Br)c(C)cc2OC[C@@H]2CNCCO2)cn1
4,0.133,CC1=C(/C=C/C(C)=C/C=C/C(C)=C/C(=O)O)C(C)(C)CCC1 [Tretinoin]

row,SMILES,"EC50, CellTiter-Blue viability [µM]"
1,NCCCNCCSP(=O)(O)O [Amifostine],0.224

# Tested on: MDA-MB-231
# Assay: not given
# Conditions: 72 h
# Outline: as §1
row,SMILES,"EC50, CellTiter-Blue viability [µM]"
1,C1CN1c1nc(N2CC2)nc(N2CC2)n1 [Triethylenemelamine],0.698

# Tested on: HCC1143
# Assay: not given
# Conditions: 72 h
# Outline: as §1
row,"EC50, CellTiter-Blue viability [µM]",SMILES
1,8.31,O=C(O)C(=O)O.[NH-][C@@H]1CCCC[C@H]1[NH-].[Pt+2] [Oxaliplatin]

# Tested on: SK-BR-3
# Assay: not given
# Conditions: 72 h
# Outline: as §1
row,"EC50, CellTiter-Blue viability [µM]",SMILES
1,2.12,Nc1nc(F)nc2c1ncn2[C@@H]1O[C@H](CO)[C@@H](O)[C@@H]1O [Fludarabine]
2,9.66,O=C(O)C(=O)O.[NH-][C@@H]1CCCC[C@H]1[NH-].[Pt+2] [Oxaliplatin]
3,0.00882,C=CC(=O)N1CCC[C@@H](n2nc(-c3ccc(Oc4ccccc4)cc3)c3c(N)ncnc32)C1
4,0.715,Cc1cnc(NC(=O)Nc2cc(Br)c(C)cc2OC[C@@H]2CNCCO2)cn1
5,0.731,CC1=C(/C=C/C(C)=C/C=C/C(C)=C/C(=O)O)C(C)(C)CCC1 [Tretinoin]
